One test concerns the target human Fab of κ-type (Homo sapiens, UniProt P01834+P01857). In words: STD NMR screening (1D saturation transfer difference) for binding to antibody. The following applies: 0.5 mM ligand; for NMR signal conc 2: 100 nM antibody; for NMR signal conc 1: 500 nM antibody, 298 K. Also on record: key: 0 no; 1 weak; 2 strong signal. As to the method:
All NMR experiments were performed at 298 K on a Bruker Avance 500 MHz spectrometer. The 1D saturation transfer difference method (STD NMR) was used as screening assay (Mayer M. and Meyer B. 1999. Characterization of Ligand Binding by Saturation Transfer Difference NMR Spectroscopy. Angew. Chem., Int. Ed. 38: 1784-1788) using several antibody concentrations in order to differentiate between compounds with different binding strength (Peng J. W., Lepre C. A., Fejzo J., Abdul-Manan N. and Moore J. M. 2001. Nuclear Magnetic Resonance-Based Approaches for Lead Generation in Drug Discovery. Methods in Enzymology. 338: 202-230). The antibody used was a human Fab of κ-type. In all cases ligands were tested one-by-one. On-resonance irradiation was set at 0 ppm and off-resonance irradiation was set at −40 ppm. Irradiation time in each scan was 2 s and 16 K data points were collected with 1024 scans in total. Compounds for testing were dissolved in DMSOd6 to a concentration of 50 mM and 5 μL of the concentrated ligand solution was added to 495 μL buffer solution. The samples thus consisted of 0.5 mM ligand, 20 mM phosphate buffer, 100 mM NaCl and […] in D2O at pD 7.5, uncorrected reading on pH-meter.
Compounds were initially tested for binding with 0.5 μM antibody. Interesting ligands were further tested with protein concentrations of 100 or 20 nM. A one-dimensional ^1H-spectrum was acquired first and subsequently a saturation transfer difference (STD) spectrum was acquired. Each analysis took 60 minutes on the spectrometer. […] The analysis was setup for automation so that several samples could be analysed over night (usually 10-15 samples/night).
As many as 46 of the virtual screening hits were tested with NMR according to the procedure described above. The results from NMR screening together with additional compound data are compiled in Table 1 below. In total 24 compounds gave a positive result in the first round with the highest antibody concentration (500 nM). These 24 compounds were subjected to a second round with an antibody concentration of 100 nM. The 4 compounds showing the strongest signal in the second round were tested for binding in a third round with 20 nM antibody. Three of the compounds in the third round gave a positive result and where thus designated as the strongest binders to the antibody out of the 46 tested compounds.

The subject of test [1] is F(ab′)2 fragment of a different specificity (kappa). In words: STD NMR control with F(ab′)2 fragment of a different specificity. Type of test: binding. Conditions: 1 μM protein; different variable part from Example 2. As to the method: The present example was performed with a F(ab′)2 fragment of a different specificity, i.e. a different variable part, from the one used in Example 2 above in order to verify that binding of one the selected compounds still occurred.
The testing was performed as described above in Example 2, but this time using 1 μM protein and using compound AB—0000860 as defined above in table 1. The results were positive, which implies that there is an interaction between AB—0000860 and at least two kappa Fab fragments of different specificities.

Test [2] relates to Fab fragment of lambda-type. In words: STD NMR control with Fab fragment of lambda-type. Conditions: tested as in Example 2 with lambda-type Fab. The test is classed as binding. The protocol:
Apart from the different Fab fragment, the testing was performed as described above in Example 2.

Sequence of human Fab of κ-type (P01857 with tags, fused parts or gaps, other chains not shown): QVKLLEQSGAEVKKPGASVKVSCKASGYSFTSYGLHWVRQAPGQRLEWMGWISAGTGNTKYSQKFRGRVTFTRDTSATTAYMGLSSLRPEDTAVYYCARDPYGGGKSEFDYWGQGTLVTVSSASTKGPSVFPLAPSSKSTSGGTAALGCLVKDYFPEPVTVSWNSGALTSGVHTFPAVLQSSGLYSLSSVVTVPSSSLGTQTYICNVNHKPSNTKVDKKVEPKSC

For `O=C1CN(c2ccccc2)C(=O)N1c1ccccc1` [AB_0000860, 1,3-diphenylimidazolidine-2,4-dione], on human Fab of κ-type (20 nM antibody), the “NMR signal conc 3” value came out at 1. Besides, on human Fab of κ-type, the “NMR signal conc 2” value is on record as 2 and the “NMR signal conc 1” value was determined as 2. The “binding to F(ab′)2 fragment (STD NMR result)” value in test [1] is on record as “positive”. The “binding to lambda-type Fab (STD NMR result)” value in test [2] was “negative”.
With `OC(CNCc1ccc(Cl)cc1)CSc1ccccc1` (centres unmarked) [AB_0001270, 1-[(4-chlorobenzyl)amino]-3-(phenylthio)propan-2-ol], at human Fab of κ-type, the “NMR signal conc 2” value is 0 and the “NMR signal conc 1” value is recorded as 1.
Turning to `Clc1ccc(OCc2noc(CSc3ccccn3)n2)cc1` [AB_0001290, 3-[(4-chlorophenoxy)methyl]-5-[(2-pyridylthio)methyl]-1,2,4-oxadiazole], at human Fab of κ-type, the “NMR signal conc 2” value is recorded as 1 and the “NMR signal conc 1” value was determined as 2.
As for `O=C(c1cccs1)c1cnc2ccccn2c1=O` [AB_0001300, 3-(2-thienylcarbonyl)-4h-pyrido[1,2-a]pyrimidin-4-one], on human Fab of κ-type, the “NMR signal conc 2” value was determined as 0 and the “NMR signal conc 1” value is reported as 1.

Values taken from US20090138208A1, “IMMUNOGLOBULIN G BINDING POCKET” (GE HEALTHCARE BIO-SCIENCES AB, priority 2002, published 2009).
